Laboratory results from patent US20220281848A1, “PYRAZOLE-SUBSTITUTED PYRROLIDINONES AS HERBICIDES” (FMC Corporation, priority 2019, published 2022).

System: plants
Experiment: Test D post-emergence, other plants of Tables D2 and D4
Assay type: in vivo
Conditions: for ALOMY damage rating (100=total damage to plant; 0=no damage to plant) / AVEFA damage rating (100=total damage to plant; 0=no damage to plant) / BEAVA damage rating (100=total damage to plant; 0=no damage to plant) / BROTE damage rating (100=total damage to plant; 0=no damage to plant) / BRSNN damage rating (100=total damage to plant; 0=no damage to plant) / CHEAL damage rating (100=total damage to plant; 0=no damage to plant) / GALAP damage rating (100=total damage to plant; 0=no damage to plant) / HORVW damage rating (100=total damage to plant; 0=no damage to plant) / KCHSC damage rating (100=total damage to plant; 0=no damage to plant) / LOLPE damage rating (100=total damage to plant; 0=no damage to plant) / POAAN damage rating (100=total damage to plant; 0=no damage to plant) / POLCO damage rating (100=total damage to plant; 0=no damage to plant) / STEME damage rating (100=total damage to plant; 0=no damage to plant) / VERPE damage rating (100=total damage to plant; 0=no damage to plant): "Cereals" Postemergent, evaluated after 15 d
Procedure, shortened: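 Seeds treated with herbicide safener; sown in soil; glasshouse, 16 h light, 65% humidity. Sprayed day 1 (pre) or ~day 12 (post). Spray in 0.2% v/v adjuvant. Scored 0–100 damage: 20 DAA pre, 15 d post.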

[1] = post-emergence, rate 130, evaluated after 15 d
[2] = post-emergence, rate 250, evaluated after 15 d
[3] = post-emergence, rate 500, evaluated after 15 d

CN1C[C@H](c2nn(C)c3c(F)cccc23)[C@@H](C(=O)Nc2cccc(F)c2F)C1=O [Compound 2]
80: POAAN damage rating (100=total damage to plant; 0=no damage to plant) (Rates 500) | damage to plant (100=total damage to plant; 0=no damage to plant), BRAPL [2] | damage to plant (100=total damage to plant; 0=no damage to plant), BRAPL [3] | damage to plant (100=total damage to plant; 0=no damage to plant), ECHCG [2] | damage to plant (100=total damage to plant; 0=no damage to plant), ECHCG [3] | damage to plant (100=total damage to plant; 0=no damage to plant), SETFA [3]
30: ALOMY damage rating (100=total damage to plant; 0=no damage to plant) (Rates 500) | BROTE damage rating (100=total damage to plant; 0=no damage to plant) (Rates 500) | HORVW damage rating (100=total damage to plant; 0=no damage to plant) (Rates 500) | damage to plant (100=total damage to plant; 0=no damage to plant), AMARE [3] | damage to plant (100=total damage to plant; 0=no damage to plant), IPOHE [3]
60: damage to plant (100=total damage to plant; 0=no damage to plant), DIGSA [1]
10: ALOMY damage rating (100=total damage to plant; 0=no damage to plant) (Rates 250) | AVEFA damage rating (100=total damage to plant; 0=no damage to plant) (Rates 250) | BEAVA damage rating (100=total damage to plant; 0=no damage to plant) (Rates 130) | BEAVA damage rating (100=total damage to plant; 0=no damage to plant) (Rates 500) | GALAP damage rating (100=total damage to plant; 0=no damage to plant) (Rates 250) | VERPE damage rating (100=total damage to plant; 0=no damage to plant) (Rates 250) | damage to plant (100=total damage to plant; 0=no damage to plant), AMARE [2] | damage to plant (100=total damage to plant; 0=no damage to plant), BIDPI [3] | damage to plant (100=total damage to plant; 0=no damage to plant), EPHHL [2] | damage to plant (100=total damage to plant; 0=no damage to plant), GLXMA [3] | damage to plant (100=total damage to plant; 0=no damage to plant), IPOHE [1] | damage to plant (100=total damage to plant; 0=no damage to plant), ORYSA [3]
40: AVEFA damage rating (100=total damage to plant; 0=no damage to plant) (Rates 500) | BRSNN damage rating (100=total damage to plant; 0=no damage to plant) (Rates 130) | BRSNN damage rating (100=total damage to plant; 0=no damage to plant) (Rates 500) | POLCO damage rating (100=total damage to plant; 0=no damage to plant) (Rates 500) | damage to plant (100=total damage to plant; 0=no damage to plant), EPHHL [3]
50: BRSNN damage rating (100=total damage to plant; 0=no damage to plant) (Rates 250)
20: BEAVA damage rating (100=total damage to plant; 0=no damage to plant) (Rates 250) | CHEAL damage rating (100=total damage to plant; 0=no damage to plant) (Rates 500) | HORVW damage rating (100=total damage to plant; 0=no damage to plant) (Rates 250) | POAAN damage rating (100=total damage to plant; 0=no damage to plant) (Rates 130) | POLCO damage rating (100=total damage to plant; 0=no damage to plant) (Rates 250) | damage to plant (100=total damage to plant; 0=no damage to plant), IPOHE [2]
70: POAAN damage rating (100=total damage to plant; 0=no damage to plant) (Rates 250) | damage to plant (100=total damage to plant; 0=no damage to plant), BRAPL [1] | damage to plant (100=total damage to plant; 0=no damage to plant), DIGSA [2] | damage to plant (100=total damage to plant; 0=no damage to plant), DIGSA [3] | damage to plant (100=total damage to plant; 0=no damage to plant), SETFA [1] | damage to plant (100=total damage to plant; 0=no damage to plant), SETFA [2]
0: ALOMY damage rating (100=total damage to plant; 0=no damage to plant) (Rates 130) | AVEFA damage rating (100=total damage to plant; 0=no damage to plant) (Rates 130) | BROTE damage rating (100=total damage to plant; 0=no damage to plant) (Rates 130) | BROTE damage rating (100=total damage to plant; 0=no damage to plant) (Rates 250) | CHEAL damage rating (100=total damage to plant; 0=no damage to plant) (Rates 250) | GALAP damage rating (100=total damage to plant; 0=no damage to plant) (Rates 130) | GALAP damage rating (100=total damage to plant; 0=no damage to plant) (Rates 500) | HORVW damage rating (100=total damage to plant; 0=no damage to plant) (Rates 130) | KCHSC damage rating (100=total damage to plant; 0=no damage to plant) (Rates 130) | KCHSC damage rating (100=total damage to plant; 0=no damage to plant) (Rates 250) | KCHSC damage rating (100=total damage to plant; 0=no damage to plant) (Rates 500) | LOLPE damage rating (100=total damage to plant; 0=no damage to plant) (Rates 130) | LOLPE damage rating (100=total damage to plant; 0=no damage to plant) (Rates 250) | LOLPE damage rating (100=total damage to plant; 0=no damage to plant) (Rates 500) | POLCO damage rating (100=total damage to plant; 0=no damage to plant) (Rates 130) | STEME damage rating (100=total damage to plant; 0=no damage to plant) (Rates 130) | STEME damage rating (100=total damage to plant; 0=no damage to plant) (Rates 250) | STEME damage rating (100=total damage to plant; 0=no damage to plant) (Rates 500) | VERPE damage rating (100=total damage to plant; 0=no damage to plant) (Rates 130) | VERPE damage rating (100=total damage to plant; 0=no damage to plant) (Rates 500) | damage to plant (100=total damage to plant; 0=no damage to plant), ABUTH (post-emergence, ABUTH, rate 500, evaluated after 15 d) | damage to plant (100=total damage to plant; 0=no damage to plant), AMARE [1] | damage to plant (100=total damage to plant; 0=no damage to plant), BIDPI [1] | damage to plant (100=total damage to plant; 0=no damage to plant), BIDPI [2] | damage to plant (100=total damage to plant; 0=no damage to plant), CYPES [1] | damage to plant (100=total damage to plant; 0=no damage to plant), CYPES [2] | damage to plant (100=total damage to plant; 0=no damage to plant), CYPES [3] | damage to plant (100=total damage to plant; 0=no damage to plant), ELEIN [1] | damage to plant (100=total damage to plant; 0=no damage to plant), ELEIN [2] | damage to plant (100=total damage to plant; 0=no damage to plant), ELEIN [3] | damage to plant (100=total damage to plant; 0=no damage to plant), EPHHL [1] | damage to plant (100=total damage to plant; 0=no damage to plant), GLXMA [1] | damage to plant (100=total damage to plant; 0=no damage to plant), GLXMA [2] | damage to plant (100=total damage to plant; 0=no damage to plant), ORYSA [1] | damage to plant (100=total damage to plant; 0=no damage to plant), ORYSA [2] | damage to plant (100=total damage to plant; 0=no damage to plant), PANMI [1] | damage to plant (100=total damage to plant; 0=no damage to plant), PANMI [2] | damage to plant (100=total damage to plant; 0=no damage to plant), PANMI [3] | damage to plant (100=total damage to plant; 0=no damage to plant), SIDSP [1] | damage to plant (100=total damage to plant; 0=no damage to plant), SIDSP [2] | damage to plant (100=total damage to plant; 0=no damage to plant), SIDSP [3] | damage to plant (100=total damage to plant; 0=no damage to plant), SORVU [1] | damage to plant (100=total damage to plant; 0=no damage to plant), SORVU [2] | damage to plant (100=total damage to plant; 0=no damage to plant), SORVU [3]
